Measured values reported in a melting point compilation (Tetko et al.; mined from patent text by program, amines drawn as free bases though some values may be those of a salt).

melting point | SMILES
216 to 218 °C | Cc1cc(C)cc(NS(=O)(=O)c2ccc(N3CCNC3=O)cc2)c1
80 °C | [N-]=[N+]=NC1CC(n2cc(I)c(=O)[nH]c2=O)OC1C(O)C(c1ccccc1)(c1ccccc1)c1ccccc1 (stereo not given)
209 to 212 °C | O=c1cc(-c2ccccc2)cc(-c2ccccc2)[nH]1
253 to 254 °C | CC(C)(C)OC(=O)N1CCC(CC(O)c2c3c(nn2-c2ccccc2)c(=O)[nH]c2ccccc23)CC1 (stereo not given)
190 to 192 °C | COc1ccc(Cc2nccc3cc(O)ccc23)cc1OC
249 to 250 °C | O=C1N(Cc2ccc(=O)[nH]c2)c2ccccc2C12COc1cc3c(cc12)OCCO3 (stereo not given)
185 to 186 °C | CSc1ccc(-c2coc3ccc(-c4nnc(C)o4)cc23)cc1OC(F)(F)F
171 to 172 °C | CCOC(=O)c1cnn(CC(O)c2ccccc2)c1NC(=S)NC(=O)c1ccccc1 (stereo not given)
104 to 106 °C | O=C(O)/C=C/C(=O)c1ccoc1
94 to 95 °C | Cc1cc2cc(F)ccc2n1-c1ccc(OCc2ccccc2)cc1
254 to 256 °C | Cn1c([N+](=O)[O-])cnc1C=Cc1cccc(C(N)=O)c1
222 to 224 °C | NC(=O)N1C(=O)C(C(=O)c2cccs2)c2nc(Cl)ccc21 (stereo not given)
264 °C | O=C(NCCCCN1CCC(c2csc3ccccc23)CC1)c1ccc(-c2ccc(C(F)(F)F)cc2)cc1
213 to 215 °C | Cc1cc(Oc2ncnc3ccn(C)c23)ccc1NC(=O)Nc1cccc(C(F)(F)F)c1
191 to 192 °C | ON=C1Cc2ccccc2C=Cc2ccccc21
53 to 55 °C | OC(CCCl)COc1ccc(F)cc1 (stereo not given)
158 to 160 °C | CN(CCO)c1nccc(NC(N)=NCC(F)(F)F)n1
110 to 115 °C | CN(C)c1ccc(NC(=O)N(CC2CCCC(CN(C(=O)Nc3ccc(N(C)C)cc3)C3CC4CCC3C4)C2)C2CC3CCC2C3)cc1 (stereo not given)
45.6 to 46.4 °C | CCCCCc1ccc(C=Nc2ccc(C#N)cc2)cc1
148 to 152 °C | CCCOc1ccc(S(C)(=O)=O)cc1C(=O)O
99 to 101 °C | NC(=O)N(c1ccc(C(F)(F)F)cc1)c1nc(Cl)cc(Cl)n1
70 to 71 °C | O=C(OCCOCCOCCO)C(=O)c1ccc(OCCOc2ccc3ccccc3c2)cc1
110 °C | Cc1nc(Sc2ccc([N+](=O)[O-])cc2)nc(C)c1Cl
47 °C | COC(=O)c1snnc1C1CC1

melting point | SMILES
128 to 130 °C | Cc1cccc(-c2[nH]c(C(C)C)nc2-c2cccc(-c3ccc(NS(C)(=O)=O)cc3)c2)n1
167 to 170 °C | NC(=O)C(c1ccc(C(=O)O)cc1)C(CCc1ccccc1)c1ccccc1N1CCCCC1 (stereo not given)
> 250 °C | Cn1ncc(C(=O)NC2COC2)c1C(=O)Nc1ccn2nc(-c3ccccc3)nc2c1
135 to 137 °C | Cc1ccccc1-n1ccc2c(NCCCO)nc3c(C)cccc3c21
85 to 86 °C | CCc1c([N+](=O)[O-])cc(C2CCNCC2)cc1[N+](=O)[O-]
195 °C | Cc1ccc(C2CC(C(C)(C)C)=NN2c2ccc(C(=O)O)cc2)cc1 (stereo not given)
141 to 142 °C | Cc1ccc(S(=O)(=O)OCCOCn2cc(F)c(=O)[nH]c2=O)cc1
103 to 104 °C | O=C(Nc1c(-c2ccccc2F)nnn1CSc1ccccc1)C(Cl)C1CCC1 (stereo not given)
60 °C | CCCCCCCCCCCCCCCCC#CCO
147 to 149 °C | Cc1cc(NC2=NCCN2C(=O)c2ccccc2)n(C)n1
141 °C | COc1ccc(C(C)=Cc2ccc3ccccc3c2)cc1
169 to 170 °C | O=C(Nc1ccccn1)c1ccc(OC(F)F)c2oc3ccc(C(F)(F)F)cc3c12
120 to 121 °C | CCCCCCCCNC(=O)C(C)=Cc1cccc(N2CC(C(=O)O)CC2=O)c1 (stereo not given)
174 to 175 °C | O=C(c1ccccc1)c1cnn2cccnc12
257 °C | CCCCc1nc(SC2CCCCC2)c(C(=O)O)n1Cc1cc2c(cc1Cl)OCO2
150 °C | Cc1cc(CC(Cc2cc(C)c(O)c(C(C)(C)C)c2)(C(=O)OC2CC(C)(C)N(C)C(C)(C)C2)C(=O)OC2CC(C)(C)N(C)C(C)(C)C2)cc(C(C)(C)C)c1O
144 to 145 °C | C[Si](C)(C)OC1c2cc(Br)ccc2-c2ccc(Br)cc2C1O[Si](C)(C)C (stereo not given)
46 to 47 °C | CCCCCCC(=S)SCCCC
175 to 178 °C | Cc1cc(-c2nncc3c(C(C)(C)C)c(OCc4ccccn4)nn23)no1
115 to 116 °C | CS(=O)(=O)N1CCN(Cc2ccccc2)CC1
225 °C | O=C(CCCl)Nc1ccc(C(=O)O)cc1
162 to 164 °C | CC1(C)CCC(=O)Nc2cc(OCCCN3CCN(c4cccc(Cl)c4Cl)CC3)ccc21
115 to 116 °C | [O-][N+]1=C(c2ccccc2Cl)c2ccccc2C=CC1
140 to 145 °C | COc1cccc(S(=O)(=O)N2CCc3cc(OCc4ccccc4)c(OC)cc3C2=O)c1

melting point | SMILES
162 °C | CCOc1nn(C(=O)NS(=O)(=O)c2c(C(=O)N(C)C)csc2C)c(=O)n1C
100 to 102 °C | COc1ccc(C2=CCCc3cc(OC)ccc32)cc1
30 to 31 °C | CC1(C)CCc2cc(C#N)ccc2O1
204 to 205 °C | O=C(O)c1cnn(-c2nc(-c3cc(C(F)(F)F)cc(C(F)(F)F)c3)cs2)c1C(F)(F)F
167 °C | CC(CN(C)C)N1c2ccccc2Sc2ccc(C(=S)NCC3CCCCC3)cc21 (racemic)
153 to 155 °C | COC(=O)c1cn(-c2ccccc2Oc2ccc(C)cc2O)nn1
83 to 85 °C | Cc1c(SCCCCl)ccnc1CSc1ncccn1
210 to 212 °C | Cc1cccc(-c2nc(NCc3ccc(Cl)cc3)c3ccccc3n2)n1
220 to 224 °C | O=C(c1cc2cc([N+](=O)[O-])ccc2[nH]1)N1CCC(Cc2ccccc2)CC1
234 to 236 °C | CC(=O)c1nc(-c2ccc(=O)n(C(C)C)n2)c(-c2ccccc2)nc1N
155 to 156 °C | CC1=C(C(=O)c2ccc(C(F)(F)F)cc2)C(=O)C2C=CC=CC2C1=O (stereo not given)
161 °C | COc1ccc(C#CC(=Nc2ccc(OC)cc2)N2CCN(Cc3ccccc3)CC2)cc1
132 to 133 °C | Cc1cc(C(=O)N2Cc3cccn3Cc3ccccc32)ccc1C1=CCCCC1C (stereo not given)
42 to 45 °C | COc1cc(C)c(C=CC(C)=CCCC=O)c(C)c1C
293 to 295 °C | CC(C)(C(=O)O)c1ccc(C(=O)Nc2cn3c4c(ccc3n2)OCC4)cc1
245 °C | O=C(O)c1cn(C2CC2)c2nc3cc(N4CCNC(c5cccs5)C4)c(F)cc3cc2c1=O (racemic)
172 to 174 °C | O=C1NC(Cc2ccccc2)C(C(=O)O)O1 (stereo not given)
273 to 274 °C | Nc1cc(C(=O)O)cc(S(N)(=O)=O)c1Nc1cccc(C(F)(F)F)c1
138 °C | COC(=O)CCCc1cc2nc(Cl)ccc2n1S(=O)(=O)c1cc(C)cc(C)c1
68 to 68.5 °C | CCN(C(=O)OC)C1=CC(=O)CC1
145 to 146 °C | CCOC(=O)C=Cc1ccc(Oc2ccc([N+](=O)[O-])cc2)c(Cl)c1Cl
90 to 92 °C | COc1cccc2ccc(Cl)nc12
185 °C | O=C(O)c1cnn2c1NC(c1ccccc1)CC2C(F)(F)F (stereo not given)
165 to 168 °C | O=C1N[C@H](C(=O)O)CSCCCCCCCCC1CS (stereo not given in full)

melting point | SMILES
129 to 131 °C | CNC1([C@@H]2CCN(c3cc(N)c4c(=O)c(C(=O)O)cn([C@@H]5C[C@@H]5F)c4c3C)C2)CC1
120 to 125 °C | O=C(OC1CCCCC1)C1Oc2ccccc2Cc2ccccc2O1
177 to 178 °C | CC(=N)NS(=O)(=O)c1cc(I)cc(C#N)c1
74 to 77 °C | COC(=O)c1cccc(OCc2ccccc2)c1
83.5 to 84.5 °C | CCOC(=O)Cc1ccc(-n2cc(F)cn2)cc1
199 to 200 °C | COc1cc2c(=O)n(Cc3ccc([N+](=O)[O-])cc3)c3cc(OC)c(OC)cc3c2cc1OC
169 to 170 °C | c1ccc(-c2cn(-c3ncc(C4CCCCC4)c4ccccc34)cn2)cc1
157 to 158 °C | COC(=O)c1sc(CBr)cc1NC(=O)Nc1ccc(C)cc1
251 to 254 °C | COc1ccc2c(C)nc(=O)[nH]c2c1
129 to 130 °C | COCOc1cc(OCOC)cc(C(=O)O)c1
136 °C | COc1ccc(C)cc1NC(=O)Nc1ccc(N2CCN(C(N)=O)CC2)cc1
168 to 169 °C | COc1ccc2c(C(=S)N(C)CC(=O)O)cccc2c1SC(F)(F)F
186 to 187 °C | O=C(CC1CCCC1)c1c(-c2ccc3c(Br)c(OCc4nnn[nH]4)ccc3c2)oc2ccccc12
81 °C | CCOC(=O)c1ccc2c(c1)C(=CCCI)CN2
65 to 105 °C | O=C(O)CCC(CC=Cc1cccc(Cl)c1)(C(=O)C=Cc1ccc(Cl)cc1)c1ccccc1 (stereo not given)
222 to 224 °C | O=C(O)CNC(=O)c1ccccc1NC(=O)c1ccccc1O
207 to 208 °C | COc1ccnc(CCc2nc3cc(-c4ccc(S(=O)(=O)N5CCc6cc(OC)c(OC)cc6C5)cc4)cnc3[nH]2)c1
216 °C | Fc1ccc(Cn2c(NC3CCNCC3)nc3ccccc32)cc1
112 °C | CN1CCc2cc(CO)sc2C(c2ccccc2)C1 (stereo not given)
178 to 180 °C | COS(=O)(=O)c1ccc(Cl)cc1NC(=O)/C=C/c1ccc2ccccc2c1
166 °C | CCOc1cc(C(F)(F)F)cc(Cl)c1-n1nc(C#N)c(SC(F)(F)F)c1N

SMILES | melting point
CCCCCCCCCCCCCC[C@]1(C)OO[C@@H]2C[C@H]1CC(=O)[C@@H]2C | 46 °C
OCc1nc2n(c1CO)-c1ccc(Cl)cc1C(c1ccccc1F)=NC2 | 222 °C
OCc1snc(Cl)c1Cl | 94 to 95 °C
CCCCCc1cc(OC)c(C2=C[C@H]3CC[C@]2(CO)C3(C)C)c(OC)c1 | 26 to 27 °C
O=C(Nc1ccc(Cl)nc1)c1cc2cc(F)ccc2n1Cc1ccncc1 | 244 to 246 °C
CN(C)c1nn(-c2cc(F)c(C#N)cc2F)c(=O)n1N | 154 to 155 °C
COc1ccc2c(c1)C(=O)NCc1c(-c3nc(C4CC4)no3)ncn1-2 | 245 °C
